In patent US5811271A, “Process for producing L-ketohexose” (Kabushiki Kaisha Hayashibara Seibutsu Kagaku Kenkyujo, priority 1994, dated 1998):

target: T1, D-ketohexose 3-epimerase (Pseudomonas cichorii, UniProt O50580); assay: Relative enzyme activity of purified D-ketohexose 3-epimerase on L-ketohexose substrates; format: biochemical, Pseudomonas cichorii ST-24; details: substrate in 0.1 M solution (pH 7.5), 11 units/g substrate of enzyme, 30° C., 24 hours; D-tagatose as control regarded as 100
T1 construct: The cells which had been recovered from 80 liters of the resultant culture were crushed by grinding; made in house; host or cells: Pseudomonas cichorii ST-24 (FERM BP-2736), the natural producer; not recombinant
Experimental: D-Ketohexose 3-epimerase was studied for relative enzyme activity on various L-ketohexoses. A purified D-ketohexose 3-epimerase obtained by the method in Example 1 was allowed to act on four different types of L-ketohexoses as substrates, i.e. L-psicose, L-fructose, L-sorbose and L-tagatose, to determine the enzyme activity on them. The reaction conditions were as follows: To either substrate in 0.1 M solution (pH 7.5) was added 11 units/g substrate of the enzyme and reacted at 30° C. for 24 hours. As a control, D-tagatose was used as substrate and the relative enzyme activity was regarded as 100.
The enzyme specimen thus obtained was assayed as follows: The reaction solution used in this assay consisted of 100 microliters of 50 mM Tris-HCl buffer (pH 7.5), 50 microliters 40 mM D-tagatose and 50 microliters of an enzyme solution. The enzymatic reaction was carried out at 30° C. for 60 minutes, and the formed D-sorbose was quantified on HPLC. One unit activity of the enzyme was defined as the amount of enzyme that epimerizes one micromol of D-tagatose into D-sorbose per minute.

Question: With O=C(CO)[C@@H](O)[C@@H](O)[C@H](O)CO [D-Tagatose, reference compound] as the molecule, how does the Relative enzyme activity read?
Answer: 100

Question: O=C(CO)[C@H](O)[C@@H](O)[C@@H](O)CO [L-Fructose] was tested. Which Relative enzyme activity did it give?
Answer: about 5

Question: With O=C(CO)[C@@H](O)[C@@H](O)[C@@H](O)CO [L-Psicose] as the molecule, how does the Relative enzyme activity read?
Answer: about 20

Question: O=C(CO)[C@@H](O)[C@H](O)[C@@H](O)CO [L-Sorbose] was tested. Which Relative enzyme activity did it give?
Answer: about 2

Question: How did the Relative enzyme activity turn out when O=C(CO)[C@H](O)[C@H](O)[C@@H](O)CO [L-Tagatose] was run?
Answer: about 0.5
